Test results: the supplement of paper PMC10627819

Assays:
B. subtilis 168 [1] = experiment: fitness (endpoint OD595 vs no drug) (fraction); higher = more growth
Procedure, shortened: (§1)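 In 384-well plates at 37 °C, cultures began at OD595 0.01 in 30 µl, with 55 µl used for S. pneumoniae. OD595 readings every 30 min for 14 h were corrected by the first reading. Fitness divides the stationary-phase transition optical density by the robust mean of no-drug control wells. The result is capped at 1.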

S. aureus DSM 20231 [2] = experiment: as above
Procedure, shortened: as §1

S. aureus Newman [3] = experiment: as above
Procedure, shortened: as §1

B. subtilis 168 [4] = experiment: Bliss interaction score (quartile over a dose matrix) (fitness difference); higher = more antagonism (negative = synergy)
Procedure, shortened: (§2)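 Growth in each well was taken as OD595 at entry into stationary phase. Dividing by the plate's robust no-drug mean and capping at 1 gave fitness, and single-drug fitness was inferred from the combination data. The Bliss score, observed minus product-expected fitness, is summarised by quartiles over technical, biological and donor/recipient replicates.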

S. aureus DSM 20231 [5] = experiment: as above
Procedure, shortened: as §2

S. aureus Newman [6] = experiment: as above
Procedure, shortened: as §2

S. pneumoniae D39V = experiment: as above
Procedure, shortened: as §2
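Throughout, for Bliss interaction score (quartile over a dose matrix): first quartile when negative (synergy) and third quartile when positive (antagonism).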

CC[C@H]1OC(=O)[C@H](C)[C@@H](O[C@H]2C[C@@](C)(OC)[C@@H](O)[C@H](C)O2)[C@H](C)[C@@H](O[C@@H]2O[C@H](C)C[C@H](N(C)C)[C@H]2O)[C@](C)(O)C[C@@H](C)CN(C)[C@H](C)[C@@H](O)[C@]1(C)O [Azithromycin] + CO/N=C(\C(=O)N[C@@H]1C(=O)N2C(C(=O)O)=C(COC(C)=O)CS[C@H]12)c1csc(N)n1 [Cefotaxime]
fitness
Settings | first compound 0.125 µg/mL | first compound 0.25 µg/mL | first compound 0.5 µg/mL | first compound 1 µg/mL
B. subtilis 168 [1], partner 0.0625 µg/mL | – | 0.654 | 0.631 | –
B. subtilis 168 [1], partner 0.125 µg/mL | – | 0.456 | 0.456 | 0.21
B. subtilis 168 [1], partner 0.25 µg/mL | – | 0.349 | 0.358 | 0.177
B. subtilis 168 [1], partner 0.5 µg/mL | – | 0.21 | 0.19 | 0.0636
B. subtilis 168 [1], partner 1 µg/mL | – | 0.141 | 0.103 | 0.0233
B. subtilis 168 [1], partner 2 µg/mL | – | 0.111 | 0.0792 | 0.037
S. aureus DSM 20231 [2], partner 0.078 µg/mL | 0.744 | 0.768 | 0.554 | –
S. aureus DSM 20231 [2], partner 0.156 µg/mL | 0.672 | 0.762 | 0.511 | –
S. aureus DSM 20231 [2], partner 0.312 µg/mL | 0.6 | 0.668 | 0.487 | –
S. aureus Newman [3], partner 0.078 µg/mL | 0.722 | 0.754 | 0.549 | –
S. aureus Newman [3], partner 0.156 µg/mL | 0.587 | 0.588 | – | –
S. aureus Newman [3], partner 0.625 µg/mL | – | – | 0.0779 | –
S. aureus Newman [3], partner 1.25 µg/mL | 0.157 | 0.0373 | 0.0342 | –
S. aureus Newman [3], partner 2.5 µg/mL | 0.0341 | 0.0356 | 0.0427 | –

fitness, one replicate
Settings | first compound 0.125 µg/mL | first compound 0.25 µg/mL | first compound 0.5 µg/mL | first compound 1 µg/mL | first compound 2 µg/mL
B. subtilis 168 [1], partner 0.00775 µg/mL | – | – | 0.831 | 0.567 | 0.0141
B. subtilis 168 [1], partner 0.0155 µg/mL | – | – | 0.714 | 0.324 | 0.0276
B. subtilis 168 [1], partner 0.031 µg/mL | – | – | 0.516 | 0.153 | 0.0097
S. aureus DSM 20231 [2], partner 0.039 µg/mL | 0.725 | 0.724 | 0.589 | – | –
S. aureus Newman [3], partner 0.039 µg/mL | 0.792 | 0.896 | 0.786 | – | –
S. aureus Newman [3], partner 0.312 µg/mL | 0.269 | 0.241 | 0.0227 | – | –

Settings | Bliss interaction score
B. subtilis 168 [4] | -0.053
S. aureus DSM 20231 [5] | 0.0492
S. aureus Newman [6] | -0.0321
S. pneumoniae D39V | 0.0552

CC[C@H]1OC(=O)[C@H](C)[C@@H](O[C@H]2C[C@@](C)(OC)[C@@H](O)[C@H](C)O2)[C@H](C)[C@@H](O[C@@H]2O[C@H](C)C[C@H](N(C)C)[C@H]2O)[C@](C)(O)C[C@@H](C)CN(C)[C@H](C)[C@@H](O)[C@]1(C)O [Azithromycin] + CC1=C\[C@@H](O)CC(=O)Cc2nc(co2)C(=O)N2CCC=C2C(=O)O[C@H](C(C)C)[C@H](C)/C=C/C(=O)NC\C=C\1 [Virginiamycin M1]
fitness
Settings | partner 0.0625 µg/mL | partner 0.125 µg/mL | partner 0.25 µg/mL
B. subtilis 168 [1], first compound 0.25 µg/mL | 0.911 | 0.876 | 0.97
B. subtilis 168 [1], first compound 0.5 µg/mL | 0.803 | 0.814 | 0.869
S. aureus DSM 20231 [2], first compound 0.125 µg/mL | 0.817 | 0.872 | 0.894
S. aureus DSM 20231 [2], first compound 0.25 µg/mL | 0.77 | 0.873 | 0.854
S. aureus DSM 20231 [2], first compound 0.5 µg/mL | 0.515 | 0.362 | –
S. aureus Newman [3], first compound 0.125 µg/mL | 0.912 | 0.904 | 0.912
S. aureus Newman [3], first compound 0.25 µg/mL | 0.935 | 0.913 | 0.92
S. aureus Newman [3], first compound 0.5 µg/mL | 0.744 | 0.707 | 0.722

fitness, one replicate
Settings | first compound 0.125 µg/mL | first compound 0.25 µg/mL | first compound 0.5 µg/mL
S. aureus DSM 20231 [2], partner 0.5 µg/mL | 0.981 | 0.86 | 0.728
S. aureus DSM 20231 [2], partner 1 µg/mL | 0.791 | 0.798 | 0.505
S. aureus Newman [3], partner 0.5 µg/mL | 0.937 | 0.9 | 0.859
S. aureus Newman [3], partner 1 µg/mL | ≥ 1 | ≥ 1 | 0.89
S. aureus Newman [3], partner 2 µg/mL | 0.904 | 0.907 | 0.764

Settings | Bliss interaction score
B. subtilis 168 [4] | 0.0627
S. aureus DSM 20231 [5] | -0.0726
S. aureus Newman [6] | 0.0851
S. pneumoniae D39V | 0.0642
